Experimental data published in ChEMBL document CHEMBL1123316, “Synthesis and biological activity of substance P C-terminal hexapeptide analogues: structure-activity studies” (1986).
Where a SMILES comes first, the peptide text is derived from it. [ ]: non-standard residue; d: D form. Orn = NCCC[C@H](N)C(=O)O

Key:
[1] = species on record: Rattus norvegicus; assay: In vitro potency as spasmogen relative to SP against rat colon muscularis mucosae
[2] = species on record: Cavia porcellus; assay: In vitro potency as spasmogen relative to SP against guinea pig ileum

## H-TFFGLM-NH2
[1]
  Relative potency: 0.056
[2]
  Relative potency: 0.021

## H-VFFGLM-NH2
[1]
  Relative potency: 0.15
[2]
  Relative potency: 0.067

## CO[C@H](C)[C@H](N)C(=O)N[C@@H](Cc1ccccc1)C(=O)N[C@@H](Cc1ccccc1)C(=O)NCC(=O)N[C@@H](CC(C)C)C(=O)N[C@@H](CCSC)C(N)=O (H-T(Me)FFGLM-NH2)
[1]
  Relative potency: 0.16
[2]
  Relative potency: 0.066

## CSCC[C@H](NC(=O)[C@H](CC(C)C)NC(=O)CNC(=O)[C@H](Cc1ccccc1)NC(=O)[C@H](Cc1ccccc1)NC(=O)[C@@H](N)CCCN)C(N)=O (H-[Orn]FFGLM-NH2)
[1]
  Relative potency: 0.36
[2]
  Relative potency: 0.39

## H-QFFGLM-NH2
[1]
  Relative potency: 0.076
[2]
  Relative potency: 0.3
